# Assay results taken from publication PMC12679848, “Sulphonamide derivatives with a triazine core as novel inducers of apoptosis and pyroptosis in glioblastoma multiforme cells” (Journal of Enzyme Inhibition and Medicinal Chemistry, 2025).
# Legend:
# T98G = assay: MTT assay, T98G; type: cell-based; conditions: Homo sapiens, 24 h of incubation, read-out: IC50 values ± SEM, MTT assay
# Procedure: Human glioblastoma cell lines (A172 CRL-1620™, U-87 MG HTB-14™, U-118 MG HTB-15™, T98G CRL-1690™) and the mouse astrocyte cell line (C8-D1A CRL-2541™) were obtained from the American Type Culture Collection (ATCC, Manassas, VA, USA). The cell lines were cultured in complete medium: DMEM (Corning, Kennebunk, ME, USA) for C8-D1A and T98G, and EMEM (ATCC, Manassas, VA, USA) for A172, U-87 MG, U118MG. The media were supplemented with 10% foetal bovine serum (Eurx, Gdansk, Poland) and 1% penicillin-streptomycin solution (Corning, Kennebunk, ME, USA). Cells were cultured in cell culture flasks (Sarstedt, Numbrecht, Germany) at 37 °C in 5% CO2. For experiments, cells were washed with phosphate-buffered saline without calcium and magnesium (Corning, Kennebunk, ME, USA) and treated with 0.05% trypsin and 0.02% EDTA (Corning, Kennebunk, ME, USA). Cells were counted using a Sceptre 3.0 cell counter (Merck Millipore, Burlington, MA, USA) prior to seeding into plates. For 6-well plates, 5 x 10^5 cells/mL were seeded, while for 96-well plates (Sarstedt, Numbrecht, Germany), 1 x 10^5 cells/mL were seeded in 100 μL of the medium.
# The cell lines were seeded in 96-well plates and cultured according to the methodology described in the previous section. Cells were then treated with the novel derivatives MM118 and MM119 and the reference compound temozolomide (TMZ) (Sigma-Aldrich, St. Louis, MO, USA) at concentrations of 0.1, 0.25, 0.5, 1.0, 2.5, 5.0, and 10.0 μM for 24 h. The MTT assay was performed using a solution of 3–(4,5-dimethyl-2-thiazolyl)-2,5-diphenyl-2H-tetrazolium bromide (Sigma-Aldrich, St. Louis, MO, USA) at a concentration of 5 mg/mL in phosphate-buffered saline without calcium and magnesium (Corning, Kennebunk, ME, USA). After 24 h incubation with test compounds, 10 μL MTT solution was added to each well, and cells were incubated for another 2 h at 37 °C. The cells were then lysed in 100 μL lysis buffer (25 mM HCl, 2% acetic acid, 3% DMF, and 5% SDS, adjusted to pH 4.7). Absorbance was measured at 570 nm using an Absorbance 96 microplate reader (Byonoy GmbH, Hamburg, Germany).
# A172 [1] = assay: Mitochondrial membrane potential (JC-1), A172; type: cell-based, human; conditions: A172, 1.5 μM, 24 h
# Procedure: The impact of the novel compounds on mitochondrial membrane potential (ΔΨm) was examined. […] In this study, the fluorochrome JC-1 was employed, which, in cells with normally functioning mitochondria, aggregates and accumulates in the hyperpolarized mitochondrial membrane, emitting a red colour. Conversely, when the membrane is damaged, JC-1 breaks down into monomers, emitting green fluorescence. […] For the U-87 MG cell line, these parameters were equal to 54.88 ± 8.36% and 56.13 ± 13.97% of the cell population.
# JC-1 (1,1′,3,3′-Tetraethyl-5,5′,6,6′-tetrachloroimidacarbocyanine iodide) (BD Biosciences, San Diego, CA, USA), a lipophilic fluorochrome, was used to evaluate changes in mitochondrial membrane potential. After treatment, cancer cells at a concentration of 1 × 10^6 cells/mL were collected and rinsed twice with PBS. Then, 500 μL JC-1 working solution was added to each sample according to the manufacturer’s protocol. The samples were then incubated for 15 min at 37 °C in a CO2 incubator. After incubation, samples were washed twice with an assay buffer, and 500 μL of each sample was transferred to a BD FACSCanto II flow cytometer (Becton Dickinson Biosciences, San Jose, CA, USA) for analysis, with 10,000 events recorded per sample. Data were analysed using FACSDiva software version 6.1.3 (BD Biosciences Systems, San Jose, CA, USA).
# caspase 9 = assay: Caspase 9 activation (FAM FLICA), A172; type: cell-based, human; conditions: A172, 1.5 μM, 24 h
# Procedure: The activity of caspase 1, caspase 3/7, caspase 8, and caspase 9 was evaluated through the utilisation of FAM FLICA Caspase Assays (ImmunoChemistry Technologies, Bloomington, MN, USA), in accordance with the established protocols. Following treatment with the compounds, the cells were collected at a concentration of 1 × 10^6 cells/mL, washed twice with cold PBS, and resuspended in 290 μL of PBS. The subsequent step involved the addition of 10 μL of 30X FLICA solution, followed by incubation at 37 °C in the absence of light for one hour. Then, 2 ml of Apoptosis Wash Buffer was added, and the samples were washed twice. A 300 μL aliquot of each sample was transferred to a BD FACSCanto II flow cytometer (Becton Dickinson Biosciences, San Jose, CA, USA), where 10,000 events per sample were recorded. The resulting data was then analysed using FACSDiva software, version 6.1.3 (BD Biosciences Systems, San Jose, CA, USA).
# A172 [2] = assay: Reactive oxygen species, H2DCFDA/DAPI staining, A172; type: cell-based, human; conditions: A172, 30 min of compound treatment
# Procedure: (§1) We performed double staining with DAPI, which stains nuclear genetic material (blue fluorescence), and H2DCFDA, an indicator of oxidative stress (green fluorescence). This study allowed us to evaluate the ability of MM118 and MM119 to activate reactive oxygen species (ROS) in A172 and U-87 MG glial cells.
# (§2) The impact of the tested compounds on reactive oxygen species (ROS) production was assessed. Cells were seeded in 6-well culture plates at a density of 1 × 10^5 cells per well in 1 ml of medium. Following a 30-min treatment with the compounds, cells were washed with phosphate-buffered saline (PBS). Subsequently, double staining was performed using 20 µM 2′,7′-dichlorodihydrofluorescein diacetate (H2DCFDA) (obtained from Thermo Fisher Scientific, Eugene, OR, USA). This colourless reagent is hydrolysed by intracellular esterases and subsequently oxidised to the 2′,7′-dichlorofluorescein (DCF), and 10 µg/mL of 4′,6-diamidino-2-phenylindole (DAPI) (Sigma-Aldrich, St. Louis, MO, USA) was used to stain nuclear DNA. Fluorescence was observed using a Nikon ECLIPSE Ti fluorescence microscope (Nikon, Tokyo, Japan). ImageJ software (Bethesda, MD, USA) was used for data analysis, with DCF fluorescence intensity measured relative to the control. A minimum of 100 cells per sample were analysed.
# U-87 MG = assay: Reactive oxygen species, H2DCFDA/DAPI staining, U-87 MG; type: cell-based, human; conditions: 30 min of compound treatment
# Procedure: as §1, §2
SMILES,IC50 (T98G) [µM],Decreased ΔΨm (cell population) (A172 [1]) [%],Active caspase 9 (cell population) (caspase 9),"ROS, mean green (DCF) fluorescence (A172 [2])","ROS, mean green (DCF) fluorescence (U-87 MG)"
"CCC(CO)NS(=O)(=O)c1ccc(-n2nc(C)c3nc4nnnn4nc32)cc1 (stereo in doubt) [MM118, N-(R)-(1-hydroxy-but-2-yl)-4-[7-methyl-5H-pyrazolo[4,3-e]tetrazolo[1,5-b][1]^,[2]^,[4]triazin-5-yl)]benzenesulfonamide]",2.44 ± 0.393,70.43 ± 1.44,31.55 ± 8.07%,increase in mean green fluorescence,effectively induce oxidative stress
"CCC(CO)NS(=O)(=O)c1ccc(-n2nc(C)c3nc4nnnn4nc32)cc1 (stereo in doubt) [MM119, N-(S)-(1-hydroxy-but-2-yl)-4-[7-methyl-5H-pyrazolo[4,3-e]tetrazolo[1,5-b][1]^,[2]^,[4]triazin-5-yl)]benzenesulfonamide]",4.41 ± 1.19,64.38 ± 1.90,25.50 ± 6.04%,increase in mean green fluorescence,effectively induce oxidative stress
"Cn1nnc2c(C(N)=O)ncn2c1=O [TMZ, temozolomide, reference compound]",> 10,20.25 ± 9.20,no significant differences,,
